Measurements as given in patent US8552032B2, “Bicyclic derivatives useful as inhibitors of DPP-1” (Janssen Pharmaceutica NV, priority 2009, dated 2013).

Target: T1, recombinant human DPP-1 (Cathepsin C) (Homo sapiens, UniProt P53634)
T1 construct: made in house
Assay: DPP-1 Inhibition Assay (in vitro), fluorogenic substrate GR-AMC
Format: biochemical
Conditions: 0.15 nM DPP-1, 10 uM GR-AMC, pH 7.0, room temperature; average value where tested multiple times
Protocol: Test compounds were assessed for DPP-1 (Cathepsin C) inhibitory activity using a fluorogenic substrate, GR-AMC (Glycine-Arginine-amino-4-methylcoumarin, Bachem, 1-1215). The amount of amino-methylcoumarin released is proportional to the DPP-1 activity, and the reaction is monitored kinetically with a Molecular Devices plate reader using black 96-well plates.
All compounds were tested under room temperature conditions. The assay buffer consisted of 50 mM HEPES, pH 7.0, 100 mM NaCl, 2 mM glutathione (GSH), and 0.002% TWEEN 20. GSH and TWEEN 20 were added to the buffer fresh daily. Just prior to use, an in-house preparation of recombinant human DPP-1 (240 μM stock, MW 49.6 kD) was diluted 600-fold in assay buffer containing fresh 2 mM dithiothreitol (DTT) to activate the enzyme, then diluted into assay buffer (without DTT) 133-fold for a DPP-1 working solution of 3 nM. Test compounds were diluted in DMSO for 20× their final assay concentrations.
Additions to a 96-well black Costar 3915 plates were as follows: 90 μL of 11 μM GR-AMC, 5 μL test compound (followed by mixing), and 5 μL 3 nM DPP1 to start the reaction. Fluorescent reactions were monitored kinetically at 360 nm excitation, 440 nm emission on a Molecular Devices Spectramax XPS reader. The Softmax Pro software of the reader determined the initial velocity of the selected data (the first 3-5 minutes of the reaction), and the best linear regression fit of the initial kinetic data. Final assay conditions were 0.15 nM DPP-1, 10 uM GR-AMC, 50 mM HEPES, pH 7.0, 100 mM NaCl, 2 mM GSH, 0.002% TWEEN 20, 1 uM DTT, 5.0% DMSO. Initial velocity rates were plotted vs. test compound concentration by use of a four-parameter logistics equation (nonlinear regression, sigmoidal dose-response (variable slope), with fixed Hill (1.0) using GraphPad Prism® software for determination of DPP-1 IC50. Within-run assay coefficient of variation (CV) was generally <10%; between-run CV <20%.
Representative compounds of the present invention were tested according to the procedure as described above, with results as listed in Table 12, below.

T1 sequence (P53634 25-463): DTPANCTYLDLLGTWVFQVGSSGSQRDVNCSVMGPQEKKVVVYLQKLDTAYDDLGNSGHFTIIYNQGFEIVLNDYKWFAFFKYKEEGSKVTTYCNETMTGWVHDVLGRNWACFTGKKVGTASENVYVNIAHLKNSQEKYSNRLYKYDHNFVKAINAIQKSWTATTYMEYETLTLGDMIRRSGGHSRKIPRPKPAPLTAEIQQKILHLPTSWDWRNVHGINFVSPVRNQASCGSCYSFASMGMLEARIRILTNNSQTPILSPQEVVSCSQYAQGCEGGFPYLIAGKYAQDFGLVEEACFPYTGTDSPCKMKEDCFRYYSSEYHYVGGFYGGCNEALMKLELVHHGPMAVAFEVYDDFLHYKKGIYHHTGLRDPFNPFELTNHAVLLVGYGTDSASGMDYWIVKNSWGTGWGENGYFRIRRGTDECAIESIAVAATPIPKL

## CC[C@H](N)C(=O)NCCCc1cc2cc(C(=O)Nc3ccc(OC)c(OC)c3)ccc2[nH]1 (single isomer, unassigned) [Compound 110]
  IC50: > 10000 nM

## N[C@@H](Cc1cccs1)C(=O)N1CCC(c2cc3ccccc3o2)CC1 [Compound 1]
  IC50: 1200 nM

## COc1ccc(-c2ccc3[nH]c(C4CCN(C(=O)[C@@H](N)Cc5cccs5)CC4)cc3c2)cc1OC [Compound 2, (S)-2-amino-1-(4-(5-(3,4-dimethoxyphenyl)-1H-indol-2-yl)piperidin-1-yl)-3-(thiophen-2-yl)propan-1-one]
  IC50: 94 nM

## N[C@@H](Cc1cccs1)C(=O)N1CCC(c2cc3cc(-c4ccc5c(c4)OCCO5)ccc3[nH]2)CC1 [Compound 3]
  IC50: 270 nM

## COc1ccc(-c2ccc3[nH]c(C4CCN(C(=O)[C@@H](N)Cc5cccs5)CC4)cc3c2)cc1 [Compound 4]
  IC50: 330 nM

## NC(=O)c1cccc(-c2ccc3[nH]c(C4CCN(C(=O)[C@@H](N)Cc5cccs5)CC4)cc3c2)c1 [Compound 5]
  IC50: 300 nM

## N[C@@H](Cc1cccs1)C(=O)N1CCC(c2cc3cc(-c4ccc5c(c4)OCO5)ccc3[nH]2)CC1 [Compound 6]
  IC50: 260 nM

## COc1ccc(NC(=O)c2ccc3[nH]c(C4CCN(C(=O)[C@@H](N)Cc5cccs5)CC4)cc3c2)cc1OC [Compound 7]
  IC50: 140 nM

## NC(=O)c1cccc(-c2ccc3[nH]c(C4CCN(C(=O)[C@@H](N)Cc5nccs5)CC4)cc3c2)c1 [Compound 8]
  IC50: 460 nM

## CC[C@H](N)C(=O)N1CCC(c2cc3cc(-c4ccc(OC)c(OC)c4)ccc3[nH]2)CC1 [Compound 9]
  IC50: 3700 nM

## COc1ccc(-c2ccc3[nH]c(C4CCN(C(=O)[C@@H](N)Cn5cccn5)CC4)cc3c2)cc1OC [Compound 11]
  IC50: ~12000 nM

## COc1ccc(-c2ccc3[nH]c(C4CCN(C(=O)[C@@H](N)CC5CCC5)CC4)cc3c2)cc1OC [Compound 12]
  IC50: 14000 nM

## COc1ccc(-c2ccc3[nH]c(C4CCN(C(=O)[C@@H](N)Cc5ccco5)CC4)cc3c2)cc1OC [Compound 13]
  IC50: 850 nM

## COc1ccc(-c2ccc3[nH]c(C4CCN(C(=O)[C@@H](N)Cc5cn(C)cn5)CC4)cc3c2)cc1OC [Compound 14]
  IC50: 3370 nM

## COc1ccc(-c2ccc3[nH]c(C4CCN(C(=O)[C@@H](N)Cc5ccsc5)CC4)cc3c2)cc1OC [Compound 15]
  IC50: 2200 nM

## COc1ccc(-c2ccc3[nH]c(C4CCN(C(=O)[C@@H](N)Cc5cccs5)CC4)nc3c2)cc1OC [Compound 18, (S)-2-amino-1-(4-(5-(3,4-dimethoxyphenyl)-1H-benzo[d]imidazol-2-yl)piperidin-1-yl)-3-(thiophen-2-yl)propan-1-one]
  IC50: 210 nM

## NC(=O)c1cccc(-c2ccc3[nH]c(C4CCN(C(=O)[C@@H](N)Cc5cccs5)CC4)nc3c2)c1 [Compound 19]
  IC50: 240 nM

## N#Cc1cccc(-c2ccc3[nH]c(C4CCN(C(=O)[C@@H](N)Cc5cccs5)CC4)cc3c2)c1 [Compound 20]
  IC50: 200 nM

## N[C@@H](Cc1cccs1)C(=O)N1CCC(c2cc3cc(-c4cccc(C(=O)O)c4)ccc3[nH]2)CC1 [Compound 21]
  IC50: 540 nM

## COc1ccc(-c2ccc3[nH]c(C4CCN(C(=O)[C@@H](N)Cc5nc(C)cs5)CC4)cc3c2)cc1OC [Compound 22]
  IC50: 18000 nM

## N[C@@H](Cc1cccs1)C(=O)N1CCC(c2cc3cc(-c4cccnc4)ccc3[nH]2)CC1 [Compound 23]
  IC50: 110 nM

## COc1ccc(-c2ccc3[nH]c(C4CCN(C(=O)[C@@H](N)Cc5ccc(Cl)s5)CC4)cc3c2)cc1OC [Compound 24]
  IC50: 5800 nM

## COc1ccc(-c2ccc3[nH]c(C4CCN(C(=O)[C@@H](N)Cc5cccs5)CC4)cc3c2)cn1 [Compound 25]
  IC50: 250 nM

## N[C@@H](Cc1cccs1)C(=O)N1CCC(c2cc3cc(-c4ccncc4)ccc3[nH]2)CC1 [Compound 26]
  IC50: 230 nM

## N[C@@H](Cc1cccs1)C(=O)N1CCC(c2cc3cc(-c4ccc(C(=O)O)cc4)ccc3[nH]2)CC1 [Compound 27]
  IC50: 590 nM

## COc1ccc(-c2ccc3[nH]c(C4CCN(C(=O)C(N)c5cccs5)CC4)cc3c2)cc1OC (stereo not drawn) [Compound 28]
  IC50: > 20000 nM

## COc1ccc(-c2ccc3[nH]c(C4CCN(C(=O)C(N)c5ccco5)CC4)cc3c2)cc1OC (stereo not drawn) [Compound 29]
  IC50: > 20000 nM

## COc1ccc(-c2ccc3[nH]c(C4CCN(C(=O)C(N)c5ccsc5)CC4)cc3c2)cc1OC (stereo not drawn) [Compound 30]
  IC50: > 20000 nM

## N[C@@H](Cc1cccs1)C(=O)NCCc1cc2ccccc2o1 [Compound 35]
  IC50: 1300 nM

## CC[C@H](N)C(=O)NCCc1cc2cc(C(=O)Nc3ccc(OC)c(OC)c3)ccc2[nH]1 [Compound 36]
  IC50: > 10000 nM

## N[C@@H](Cc1cccs1)C(=O)NCCc1nc2ccccc2[nH]1 [Compound 37, (S)—N-(2-(1H-benzo[d]imidazol-2-yl)ethyl)-2-amino-3-(thiophen-2-yl)propanamide]
  IC50: 4250 nM

## CC[C@H](N)C(=O)NCCc1nc2ccccc2[nH]1 [Compound 38]
  IC50: 6500 nM

## CC[C@H](N)C(=O)NCCc1nc2ccccc2n1C [Compound 39]
  IC50: 43000 nM

## CC[C@H](N)C(=O)NCCCc1cc2ccccc2[nH]1 [Compound 40, (S)—N-(3-(1H-indol-2-yl)propyl)-2-aminobutanamide]
  IC50: 2900 nM

## CC[C@H](N)C(=O)NCCCc1cc2ccccc2n1C [Compound 41, (S)-2-amino-N-(3-(1-methyl-1H-indol-2-yl)propyl)butanamide]
  IC50: 6300 nM

## CC[C@H](N)C(=O)NCCCc1cc2ccccc2o1 [Compound 42]
  IC50: 3300 nM

## CC[C@H](N)C(=O)NCCCc1csc2ccccc12 [Compound 43]
  IC50: 14000 nM

## CC[C@H](N)C(=O)NCCCc1cc2cc(-c3ccccc3)ccc2o1 [Compound 45]
  IC50: 9600 nM

## CC[C@H](N)C(=O)NCCCc1cc2ccc(C(=O)N(CC)CC)cc2o1 [Compound 46]
  IC50: 42000 nM

## CC[C@H](NC(=O)OC(C)(C)C)C(=O)NCCCc1cc2cc(C(=O)O)ccc2[nH]1 [Compound 47, (S)-2-(3-(2-(tert-butoxycarbonylamino)butanamido)propyl)-1H-indole-5-carboxylic acid]
  IC50: 53000 nM

## CC[C@H](N)C(=O)NCCCc1cc2cc(C(=O)Nc3nc[nH]n3)ccc2[nH]1 [Compound 48]
  IC50: 6300 nM

## CC[C@H](N)C(=O)NCCCc1cc2cc([N+](=O)[O-])ccc2o1 [Compound 49]
  IC50: 19000 nM

## CC[C@H](N)C(=O)NCCCc1cc2cc(C(=O)Nc3ccc(OC)c(OC)c3)ccc2[nH]1 [Compound 50, (S)-2-(3-(2-aminobutanamido)propyl)-N-(3,4-dimethoxyphenyl)-1H-indole-5-carboxamide]
  IC50: 240 nM

## CC[C@H](N)C(=O)NCCCc1cc2cc(C(=O)Nc3ccccc3)ccc2o1 [Compound 51]
  IC50: 4100 nM

## CC[C@H](N)C(=O)NCCCc1cc2cc(C(=O)Nc3cccnc3)ccc2o1 [Compound 52]
  IC50: 4000 nM

## CC[C@H](N)C(=O)NCCCc1cc2cc(C(=O)NCc3ccccc3)ccc2o1 [Compound 53]
  IC50: 7400 nM

## CC[C@H](N)C(=O)NCCCc1cc2cc(C(=O)Nc3cccc4ccccc34)ccc2o1 [Compound 54]
  IC50: 850 nM

## CC[C@H](N)C(=O)NCCCc1cc2cc(C(=O)Nc3cccc4ncccc34)ccc2o1 [Compound 55]
  IC50: 220 nM

## N[C@@H](Cc1cccs1)C(=O)NCCCc1cc2ccccc2o1 [Compound 56]
  IC50: 1100 nM

## CC[C@H](N)C(=O)NCCCc1cc2cc(C(=O)Nc3ccc4ncsc4c3)ccc2o1 [Compound 57]
  IC50: 700 nM

## CC[C@H](N)C(=O)NCCCc1cc2cc(C(=O)Nc3ccc(OC)c(OC)c3)ccc2o1 [Compound 58]
  IC50: 730 nM

## CC[C@H](N)C(=O)NCCCc1cc2cc(C(=O)Nc3cccc4c3ncn4C)ccc2o1 [Compound 59]
  IC50: 1400 nM

## CC[C@H](N)C(=O)NCCCc1cc2cc(C(=O)Nc3cc[nH]n3)ccc2[nH]1 [Compound 61]
  IC50: 4300 nM

## CC[C@H](N)C(=O)NCCCc1cc2cc(C(=O)Nc3cc(-c4ccccc4)[nH]n3)ccc2[nH]1 [Compound 62]
  IC50: 2800 nM

## CC[C@H](N)C(=O)NCCCc1cc2cc(C(=O)Nc3ncnc4[nH]ncc34)ccc2[nH]1 [Compound 63]
  IC50: 2500 nM

## CC[C@H](N)C(=O)NCCCc1cc2cc(C(=O)Nc3cnc4ccccc4c3)ccc2o1 [Compound 64]
  IC50: 350 nM

## CC[C@H](N)C(=O)NCCCc1cc2cc(C(=O)Nc3cccc4cnccc34)ccc2o1 [Compound 65]
  IC50: 480 nM

## CC[C@H](N)C(=O)NCCCc1cc2cc(C(=O)Nc3cccc4cccnc34)ccc2o1 [Compound 66]
  IC50: 910 nM

## CC[C@H](N)C(=O)NCCCc1cc2cc(C(=O)Nc3ccc4ncccc4c3)ccc2o1 [Compound 67]
  IC50: 200 nM

## CC[C@H](N)C(=O)NCCCc1cc2cc(C(=O)Nc3cccc4ccncc34)ccc2o1 [Compound 68]
  IC50: 710 nM
